# In ChEMBL document CHEMBL1156660, “Alkaloids from the mushroom Pseudobaeospora pyrifera, pyriferines A-C” (J Nat Prod, 2008):
# Molecular target: Acetylcholinesterase (Homo sapiens) (UniProt P22303)
# Assay: Inhibition of acetylcholinesterase at 100 uM by chemiluminescence method
# Sequence of Acetylcholinesterase (Homo sapiens) (P22303 whole entry): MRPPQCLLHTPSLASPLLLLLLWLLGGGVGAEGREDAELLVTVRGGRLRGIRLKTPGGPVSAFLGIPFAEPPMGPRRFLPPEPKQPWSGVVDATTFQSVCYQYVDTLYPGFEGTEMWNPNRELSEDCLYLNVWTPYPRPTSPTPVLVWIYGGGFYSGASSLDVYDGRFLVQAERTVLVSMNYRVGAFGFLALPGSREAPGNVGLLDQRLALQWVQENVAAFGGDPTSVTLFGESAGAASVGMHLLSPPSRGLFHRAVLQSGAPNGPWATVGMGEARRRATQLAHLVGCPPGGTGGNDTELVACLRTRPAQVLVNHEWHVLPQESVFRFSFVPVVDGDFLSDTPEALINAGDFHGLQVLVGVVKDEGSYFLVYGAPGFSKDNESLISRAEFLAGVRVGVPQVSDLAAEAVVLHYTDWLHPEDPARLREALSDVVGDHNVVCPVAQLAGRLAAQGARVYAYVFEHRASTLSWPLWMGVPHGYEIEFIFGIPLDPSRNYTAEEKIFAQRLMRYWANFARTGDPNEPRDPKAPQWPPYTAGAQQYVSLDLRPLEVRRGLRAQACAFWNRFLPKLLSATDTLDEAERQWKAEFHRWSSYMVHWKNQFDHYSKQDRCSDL
row,Compound,inhibition
1,C=C1CC[C@@H](OC)C(O)=C1C(=O)C1(C)NC(=O)CC[C@H](N)C(=O)O1 (some centres not stated),7%
2,CO[C@@H]1CC[C@](C)(O)C(C(=O)C2(C)NC(=O)CC[C@H](N)C(=O)O2)=C1O (some centres not stated),20%
